≈ marks a conversion by molar mass, not a printed value.
Key:
gram-positive bacteria = assay: In vitro antibacterial activity against gram-positive bacteria (in words); type: cell-based
Procedure: (§1) The minimum inhibitory concentration (MIC) of the compound (I) was determined by an agar dilution technique (the standard method of Japan Society of Chemotherapy) against standard strains of gram-positive and gram-negative bacteria.

[1] = Tissue levels after a single oral administration, mice and rats together; type: in vivo; conditions: single oral 50 mg/kg
Procedure: Tissue levels of the compound (I) after a single oral administration of 50 mg/kg in mice and rats
Tissue levels of the compound (I) were determined by micro-biological assay which employed the thin layer cup method with Bacillus subtilis ATCC6633 as the test organism. Serum and tissue levels of the compound (I) were calculated with the standard curve prepared in normal serum of the test animal species and M/15 phosphate buffer (pH 7.5), respectively.

[2] = test system: Streptococcus pyogenes IID692; assay: In vitro antibacterial activity (MIC, agar dilution); type: cell-based; conditions: Streptococcus pyogenes IID692; inoculum 10^8 cells/ml; read-out: MIC
Procedure: as §1
(§2) Inoculum size: 10^8 cells/ml

[3] = test system: Enterobacter cloacae IID977; assay: as above; type: cell-based; conditions: inoculum 10^8 cells/ml
Procedure: as §1, §2

[4] = test system: Staphylococcus aureus 209P; assay: as above; type: cell-based; conditions: Staphylococcus aureus 209P; inoculum 10^8 cells/ml; read-out: MIC
Procedure: as §1, §2

S. pyogenes S-8 = assay: as above; type: cell-based; conditions: Streptococcus pyogenes, S8; S. pyogenes S-8; inoculum 10^8 cells/ml; read-out: MIC
Procedure: as §1, §2

P. mirabilis IID994 = assay: as above; type: cell-based; conditions: Proteus mirabilis, inoculum 10^8 cells/ml
Procedure: as §1, §2

[5] = test system: Acinetobacter enitratus IID876; assay: as above; type: cell-based; conditions: inoculum 10^8 cells/ml
Procedure: as §1, §2

[6] = test system: Pseudomonas aeruginosa V-1; assay: as above; type: cell-based; conditions: V1; Pseudomonas aeruginosa V-1; inoculum 10^8 cells/ml; read-out: MIC
Procedure: as §1, §2

[7] = test system: Alcaligenes faecalis 0104002; assay: as above; type: cell-based; conditions: inoculum 10^8 cells/ml
Procedure: as §1, §2

S. faecalis IID682 = assay: as above; type: cell-based; conditions: Enterococcus faecalis; S. faecalis IID682; inoculum 10^8 cells/ml; read-out: MIC
Procedure: as §1, §2

E. coli NIHJ JC-2 = assay: as above; type: cell-based; conditions: Escherichia coli, NIHJJC2; E. coli NIHJ JC-2; inoculum 10^8 cells/ml; read-out: MIC
Procedure: as §1, §2

[8] = test system: Yersinia enterocolitica IID981; assay: as above; type: cell-based; conditions: inoculum 10^8 cells/ml
Procedure: as §1, §2

E. coli ATCC10536 = assay: as above; type: cell-based; conditions: Escherichia coli; E. coli ATCC10536; inoculum 10^8 cells/ml; read-out: MIC
Procedure: as §1, §2

SMILES: CCn1cc(C(=O)O)c(=O)c2cc(F)c(N3CCN(Cc4ccc(N)cc4)CC3)c(F)c21 [compound (I), 7-[4-(p-aminobenzyl)-1-piperazinyl]-1-ethyl-6,8-difluoro-1,4-dihydro-4-oxoquinoline-3-carboxylic acid]
- Antibacterial activity against gram-positive bacteria containing Streptococcus spp., in words (gram-positive bacteria): more potent against gram-positive bacteria containing Streptococcus spp.
- Level in lung, liver and kidney relative to serum, in words ([1]; both species): higher than those in serum
- Transferability in tissues, in words ([1]; mice and rats): very excellent
- Tmax ([1]; serum, mice and rats, read-out: Time to peak serum level): 30 to 60 min
- MIC [2]: 0.78 µg/mL (≈ 1.76 µM)
- MIC [3]: 1.56 µg/mL (≈ 3.53 µM)
- MIC [4]: 0.1 µg/mL (≈ 0.226 µM)
- MIC (S. pyogenes S-8): 0.78 µg/mL (≈ 1.76 µM)
- MIC (P. mirabilis IID994): 1.56 µg/mL (≈ 3.53 µM)
- MIC [5]: 0.78 µg/mL (≈ 1.76 µM)
- MIC [6]: 12.5 µg/mL (≈ 28.3 µM)
- MIC [7]: 3.13 µg/mL (≈ 7.07 µM)
- MIC (S. faecalis IID682): 0.78 µg/mL (≈ 1.76 µM)
- MIC (E. coli NIHJ JC-2): 0.2 µg/mL (≈ 0.452 µM)
- MIC [8]: 1.56 µg/mL (≈ 3.53 µM)
- MIC (E. coli ATCC10536): 0.39 µg/mL (≈ 0.881 µM)

From patent publication US4429127A, “Quinoline carboxylic acid derivative” (Kyorin Pharmaceutical Co., Ltd., priority 1981, dated 1984)
